“And” between values parts separate entries of the source, which are not always exact repeats. Equal entries are not always repeated.
What was measured:
TRPC1/4 heteromer = biological target: T1, TRPC1/4 heteromer (Homo sapiens, UniProt P48995+Q9UBN4); experiment: Whole-cell patch-clamp, inhibition of TRPC1/4 heteromer; format: cell-based; conditions: read-out: IC50, TRPC1/4 heteromers
T1 construct: expressed in transfected cells

TRPC4 homomer = biological target: T2, TRPC4 homomer (Homo sapiens, UniProt Q9UBN4); experiment: Whole-cell patch-clamp, inhibition of TRPC4 homomer; format: cell-based; conditions: read-out: IC50, TRPC4 homomers
T2 construct: expressed in transfected cells
T2 sequence (Q9UBN4 1-977): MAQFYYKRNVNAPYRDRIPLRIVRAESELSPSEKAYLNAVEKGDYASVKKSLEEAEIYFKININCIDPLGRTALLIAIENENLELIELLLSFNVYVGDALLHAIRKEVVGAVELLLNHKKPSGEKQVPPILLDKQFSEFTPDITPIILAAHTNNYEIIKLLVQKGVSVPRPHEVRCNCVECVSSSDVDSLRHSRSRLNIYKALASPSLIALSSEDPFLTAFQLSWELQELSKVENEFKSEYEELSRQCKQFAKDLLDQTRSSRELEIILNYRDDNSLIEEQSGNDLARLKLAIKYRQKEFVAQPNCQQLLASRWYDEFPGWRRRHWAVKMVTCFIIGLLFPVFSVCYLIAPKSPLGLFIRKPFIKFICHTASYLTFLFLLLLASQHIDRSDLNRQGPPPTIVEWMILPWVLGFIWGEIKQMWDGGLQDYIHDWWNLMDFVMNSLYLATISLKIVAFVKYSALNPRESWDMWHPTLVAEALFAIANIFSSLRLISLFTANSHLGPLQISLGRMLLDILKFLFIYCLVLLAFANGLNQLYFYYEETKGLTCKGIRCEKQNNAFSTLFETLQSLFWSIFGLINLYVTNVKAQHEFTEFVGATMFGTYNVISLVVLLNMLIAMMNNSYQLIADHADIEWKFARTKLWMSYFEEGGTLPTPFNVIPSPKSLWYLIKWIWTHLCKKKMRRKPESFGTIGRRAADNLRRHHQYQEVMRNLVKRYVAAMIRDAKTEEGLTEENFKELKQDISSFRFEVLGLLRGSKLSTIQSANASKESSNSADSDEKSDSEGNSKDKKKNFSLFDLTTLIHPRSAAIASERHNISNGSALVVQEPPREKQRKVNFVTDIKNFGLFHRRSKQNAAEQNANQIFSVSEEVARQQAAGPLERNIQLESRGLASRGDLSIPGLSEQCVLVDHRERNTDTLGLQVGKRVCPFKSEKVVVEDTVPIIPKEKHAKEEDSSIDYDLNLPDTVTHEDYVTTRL

[1] = tested on: CUMS-induced depressive-like behaviors; experiment: Forced swim test (FST) in CUMS model; format: in vivo, mouse; conditions: CUMS mice; 14 days once-daily oral; vs vehicle
Experimental: The stressors included food and water deprivation, foot shock, wet bedding, cage tilting, restraint, shaking, and olfactory stimulation. These seven stressors were randomly applied each week to ensure unpredictability. The stress induction was maintained continuously for 28 days. Following model establishment, the tail suspension test (TST) was performed to confirm the successful induction of depressive-like behaviors. Mice that met the criteria were randomly assigned to experimental groups. Chronic Treatment: Mice were treated daily for 14 consecutive days. The SPT was conducted on day 11, and the forced swimming test (FST) was performed on day 14.

mCPP-induced anxiety = experiment: Marble-burying test (MBT), mCPP-induced anxiety model; conditions: mCPP mice; single dose
Experimental: Seventy male 7–8-week-old C57BL/6 J mice from Jinan Pengyue Laboratory Animal Breeding Co., Ltd. (Jinan, China) were randomly and equally divided into seven groups for the experiment. After a 7-day acclimatization period, interventions were carried out for the indicated days. The Elevated Plus Maze (EPM) test was conducted on day 8, the Marble-Burying (MB) test on day 11, and the Open Field (OF) test on day 14. Mice were brought to the experimental site 2 h before the start of the experiment for acclimatization. […] Anxiety models were induced 30 min before the experiment using the following protocols: control group (NS, 10 mL/kg, i.p.), other groups (mCPP, 2 mg/kg, i.p.)[56].
Prior to the test, the animals were acclimated to the testing environment for 60 min. The test lasted for 30 min, and after each round, the bedding was replaced and the cage was disinfected. The number of marbles buried was recorded, with burying more than 50% of the marbles considered as the criteria for burying.

TRPC6 homomer = biological target: T3, TRPC6 homomer (Homo sapiens, UniProt Q9Y210); experiment: Whole-cell patch-clamp, inhibition of TRPC6 homomer; format: cell-based
T3 construct: expressed in transfected cells
T3 sequence (Q9Y210 1-931): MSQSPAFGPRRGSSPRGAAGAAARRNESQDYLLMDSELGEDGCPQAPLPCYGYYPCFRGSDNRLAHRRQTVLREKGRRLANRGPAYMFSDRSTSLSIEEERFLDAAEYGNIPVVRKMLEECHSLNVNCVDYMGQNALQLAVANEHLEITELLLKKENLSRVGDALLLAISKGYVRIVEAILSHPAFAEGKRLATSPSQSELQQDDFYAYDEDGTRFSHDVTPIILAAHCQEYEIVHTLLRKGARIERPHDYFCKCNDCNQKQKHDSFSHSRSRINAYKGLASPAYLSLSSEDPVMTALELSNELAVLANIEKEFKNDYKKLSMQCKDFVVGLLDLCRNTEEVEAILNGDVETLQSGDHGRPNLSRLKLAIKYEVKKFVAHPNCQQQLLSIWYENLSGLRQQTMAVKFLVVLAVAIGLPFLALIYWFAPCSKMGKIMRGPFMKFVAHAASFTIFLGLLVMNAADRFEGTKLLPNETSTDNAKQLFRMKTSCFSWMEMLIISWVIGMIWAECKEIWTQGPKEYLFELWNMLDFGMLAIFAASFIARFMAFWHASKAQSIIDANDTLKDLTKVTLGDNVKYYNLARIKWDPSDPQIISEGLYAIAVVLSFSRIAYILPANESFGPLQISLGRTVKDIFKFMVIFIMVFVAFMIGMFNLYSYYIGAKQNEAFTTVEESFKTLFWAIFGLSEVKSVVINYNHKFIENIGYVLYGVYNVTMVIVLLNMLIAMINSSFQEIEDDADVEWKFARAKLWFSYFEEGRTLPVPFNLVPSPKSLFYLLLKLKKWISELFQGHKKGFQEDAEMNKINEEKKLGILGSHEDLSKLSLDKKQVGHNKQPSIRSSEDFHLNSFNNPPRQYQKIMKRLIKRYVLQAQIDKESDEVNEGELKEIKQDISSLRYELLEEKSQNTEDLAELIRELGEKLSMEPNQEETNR
Description: Error bars represent the standard error of the mean (SEM, n = 6 independent
Error bars represent the standard error of the
110 mean (SEM, n = 5 independent cells).

T1 sequence (P48995 whole entry, one chain of several): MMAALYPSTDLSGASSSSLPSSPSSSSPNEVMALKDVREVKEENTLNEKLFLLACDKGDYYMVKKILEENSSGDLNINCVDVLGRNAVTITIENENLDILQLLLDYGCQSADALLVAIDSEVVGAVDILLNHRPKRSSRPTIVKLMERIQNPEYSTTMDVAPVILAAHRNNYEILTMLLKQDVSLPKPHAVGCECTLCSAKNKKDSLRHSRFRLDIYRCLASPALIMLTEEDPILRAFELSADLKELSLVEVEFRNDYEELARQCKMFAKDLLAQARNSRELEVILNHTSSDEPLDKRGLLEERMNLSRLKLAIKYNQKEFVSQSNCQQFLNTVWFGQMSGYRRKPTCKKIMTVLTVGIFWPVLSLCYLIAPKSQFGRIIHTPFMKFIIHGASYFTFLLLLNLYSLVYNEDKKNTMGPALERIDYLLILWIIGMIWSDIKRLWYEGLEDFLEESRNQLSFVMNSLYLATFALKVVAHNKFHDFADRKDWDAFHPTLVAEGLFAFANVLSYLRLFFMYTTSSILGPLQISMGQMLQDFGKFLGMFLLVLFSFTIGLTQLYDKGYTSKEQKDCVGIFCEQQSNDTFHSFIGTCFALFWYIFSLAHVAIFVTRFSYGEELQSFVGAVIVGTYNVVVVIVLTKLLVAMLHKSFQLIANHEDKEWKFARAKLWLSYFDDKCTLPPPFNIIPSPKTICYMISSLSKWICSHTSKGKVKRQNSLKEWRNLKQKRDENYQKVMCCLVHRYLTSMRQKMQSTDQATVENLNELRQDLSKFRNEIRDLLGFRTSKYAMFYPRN
Experimental for healthy C57BL/6J mice: The Open-Field test (OFT) was utilized to evaluate the autonomous behavior, exploratory tendencies, and anxiety levels of experimental animals in a new environment. Each mouse was placed at the center of the container and given a 10-min exploration period. Before the test, the animals were acclimated to the experimental setting for 60 min. […] This cleaning procedure aimed to reduce the risk of contamination and prevent any misleading experimental results due to olfactory stimuli. Anxiety levels and exploratory behavior were assessed by measuring the time spent in the central area, the number of entries into the central area, and the total distance traveled by the mice.

CN(C)CCCCn1c(=O)c2c(nc(Oc3cccc(Cl)c3)n2Cc2ccc(Cl)cc2)n(C)c1=O [H08]
IC50 (TRPC1/4 heteromer): 6.68 nM and 6.7 nM
IC50 (TRPC4 homomer): 2380 nM
immobility (FST), repeated dosing [1]: reduced immobility
MBT number of marbles buried (mCPP-induced anxiety): reducing the number of marbles buried
IC50 (TRPC6 homomer): > 10000 nM
inhibition at 10 µM (TRPC6 homomer; 10 μM): 30 to 40%
inhibition of TRPC6 (TRPC6 homomer; 10 μM): no more than 40%
OFT total distance traveled (healthy C57BL/6J mice): no significant effect

Reference: article PMC13385394, “Cryo-EM Structure of the TRPC1/5 Heteromer Enables Design of Antidepressant and Anxiolytic Drug with Reduced Side Effects” (Nature Communications, 2026)
